Data published in patent US20250320224A1 (DOMAIN THERAPEUTICS, priority 2022, published 2025).
Counter-ions that a name gives are not always drawn.

Target: T1, human PAR-2 (hPAR-2) receptor (Homo sapiens, UniProt P55085)
T1 construct: expressed in HEK-293 cells in an endogenous manner; endogenous in cells; host or cells: HEK-293
T1 sequence (P55085 26-397): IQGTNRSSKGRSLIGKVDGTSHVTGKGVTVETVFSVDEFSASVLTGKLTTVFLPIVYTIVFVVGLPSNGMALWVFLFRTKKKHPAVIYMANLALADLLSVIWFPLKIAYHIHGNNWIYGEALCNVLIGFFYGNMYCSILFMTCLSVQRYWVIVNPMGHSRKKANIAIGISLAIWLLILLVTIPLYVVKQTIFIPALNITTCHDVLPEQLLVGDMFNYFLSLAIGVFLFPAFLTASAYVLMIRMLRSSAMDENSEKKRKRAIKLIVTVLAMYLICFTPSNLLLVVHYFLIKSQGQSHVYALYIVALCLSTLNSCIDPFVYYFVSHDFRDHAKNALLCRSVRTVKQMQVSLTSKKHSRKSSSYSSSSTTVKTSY
Assay: In vitro human PAR-2 functional antagonist activity using calcium assays
Assay type: cell-based
Conditions: hPAR-2 endogenously expressed in HEK-293 cells; stimulated by 2-Furoyl-LIGRLO-NH2 peptide; Fluo4AM intracellular calcium, FLIPR Tetra
Procedure, shortened: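 Antagonism was measured as reduced calcium response to 2-Furoyl-LIGRLO-NH2 (dosed at its 80%-of-maximum concentration), recorded for 5 min. This followed a 10 min compound pre-incubation on Fluo4AM-loaded HEK-293 cells expressing native hPAR-2. Signals were normalised to buffer and agonist-alone controls.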

IC50 [nM] | Structure (SMILES)
< 500 | CC1(C)CN(c2ccc(Cl)c(F)c2)c2ccc(C(=O)N3CCN(c4nc(C(=O)N5CCC(O)CC5)cs4)CC3(C)C)nc21 [Example 81, (1-(4-chloro-3-fluorophenyl)-3,3-dimethyl-2,3-dihydro-1H-pyrrolo[3,2-b]pyridin-5-yl)(4-(4-(4-hydroxypiperidine-1-carbonyl)thiazol-2-yl)-2,2-dimethylpiperazin-1-yl)methanone]
< 500 | CC1(C)CN(c2ccc(Cl)c(F)c2)c2ccc(C(=O)N3CCN(c4nc(C(=O)N5CCOCC5)cs4)CC3(C)C)nc21 [Example 82, (1-(4-chloro-3-fluorophenyl)-3,3-dimethyl-2,3-dihydro-1H-pyrrolo[3,2-b]pyridin-5-yl)(2,2-dimethyl-4-(4-(morpholine-4-carbonyl)thiazol-2-yl)piperazin-1-yl)methanone]
< 500 | CC1(C)CN(c2ccc(Cl)c(F)c2)c2ccc(C(=O)N3CCN(c4nc(C(N)=O)cs4)CC3(C)C)nc21 [Example 83, 2-(4-(1-(4-chloro-3-fluorophenyl)-3,3-dimethyl-2,3-dihydro-1H-pyrrolo[3,2-b]pyridine-5-carbonyl)-3,3-dimethylpiperazin-1-yl)thiazole-4-carboxamide]
< 500 | Cc1ccc(N2CC(C)(C)c3nc(C(=O)N4CCN(c5cc(C)c(C(=O)O)c(C)n5)CC4(C)C)ccc32)cc1F [Example 85, 6-(4-(1-(3-fluoro-4-methylphenyl)-3,3-dimethyl-2,3-dihydro-1H-pyrrolo[3,2-b]pyridine-5-carbonyl)-3,3-dimethylpiperazin-1-yl)-2,4-dimethylnicotinic acid]
> 10000 | Cc1cc(N2CCN(C(=O)c3ccc4c(n3)OC(C)(C)CN(c3ccc(Cl)c(F)c3)C4)C(C)(C)C2)nc(C)c1C(=O)O [Example 87, 6-(4-(4-(4-chloro-3-fluorophenyl)-2,2-dimethyl-2,3,4,5-tetrahydropyrido[3,2-f][1,4]oxazepine-8-carbonyl)-3,3-dimethylpiperazin-1-yl)-2,4-dimethylnicotinic acid]
< 500 | Cc1cc(N2CCN(C(=O)c3ccc4c(n3)C3(CN4c4ccc(Cl)c(F)c4)CC(F)(F)C3)C(C)(C)C2)nc(C)c1C(=O)O [Example 89, 6-(4-(1′-(4-chloro-3-fluorophenyl)-3,3-difluoro-1′,2′-dihydrospiro[cyclobutane-1,3′-pyrrolo[3,2-b]pyridine]-5′-carbonyl)-3,3-dimethylpiperazin-1-yl)-2,4-dimethylnicotinic acid]
< 500 | Cc1cc(N2CCN(C(=O)c3ccc4c(n3)C3(C=C(F)C3)CN4c3ccc(Cl)c(F)c3)C(C)(C)C2)nc(C)c1C(=O)O (stereo not drawn) [Example 90, 6-(4-(1′-(4-chloro-3-fluorophenyl)-3-fluoro-1′,2′-dihydrospiro[cyclobutane-1,3′-pyrrolo[3,2-b]pyridin]-2-en-5′-carbonyl)-3,3-dimethylpiperazin-1-yl)-2,4-dimethylnicotinic acid]
500 to 10000 | CO[C@@H]1CN(C(=O)c2ccc3c(n2)C(C)(C)CN3c2ccc(Cl)c(F)c2)CC[C@H]1CC(=O)O [Example 92, 2-((3S,4S)-1-(1-(4-chloro-3-fluorophenyl)-3,3-dimethyl-2,3-dihydro-1H-pyrrolo[3,2-b]pyridine-5-carbonyl)-3-methoxypiperidin-4-yl)acetic acid]
500 to 10000 | CO[C@H]1CN(C(=O)c2ccc3c(n2)C(C)(C)CN3c2ccc(Cl)c(F)c2)CC[C@@H]1CC(=O)O [Example 94, 2-((3R,4R)-1-(1-(4-chloro-3-fluorophenyl)-3,3-dimethyl-2,3-dihydro-1H-pyrrolo[3,2-b]pyridine-5-carbonyl)-3-methoxypiperidin-4-yl)acetic acid]
500 to 10000 | CO[C@@H]1CN(C(=O)c2ccc3c(n2)C(C)(C)CN3c2ccc(Cl)c(F)c2)CC[C@@H]1CC(=O)O [Example 98, 2-((3S,4R)-1-(1-(4-chloro-3-fluorophenyl)-3,3-dimethyl-2,3-dihydro-1H-pyrrolo[3,2-b]pyridine-5-carbonyl)-3-methoxypiperidin-4-yl)acetic acid]
< 500 | Cc1cc(N2CCN(C(=O)c3cnc4c(n3)C(C)(C)CN4c3ccc(Cl)c(F)c3)C(C)(C)C2)nc(C)c1C(=O)O [Example 100, 6-(4-(5-(4-chloro-3-fluorophenyl)-7,7-dimethyl-6,7-dihydro-5H-pyrrolo[2,3-b]pyrazine-2-carbonyl)-3,3-dimethylpiperazin-1-yl)-2,4-dimethylnicotinic acid]
< 500 | CN1CCN(C(=O)c2csc(N3CCN(C(=O)c4ccc5c(n4)C(C)(C)CN5c4ccc(Cl)c(F)c4)C(C)(C)C3)n2)CC1 [Example 101, (1-(4-chloro-3-fluorophenyl)-3,3-dimethyl-2,3-dihydro-1H-pyrrolo[3,2-b]pyridin-5-yl)(2,2-dimethyl-4-(4-(4-methylpiperazine-1-carbonyl)thiazol-2-yl)piperazin-1-yl)methanone hydrochloride]
< 500 | CCC1(CC)CN(c2ccc(Cl)c(F)c2)c2ccc(C(=O)N3CCN(c4cc(C)c(C(=O)O)c(C)n4)CC3(C)C)nc21 [Example 103, 6-(4-(1-(4-chloro-3-fluorophenyl)-3,3-diethyl-2,3-dihydro-1H-pyrrolo[3,2-b]pyridine-5-carbonyl)-3,3-dimethylpiperazin-1-yl)-2,4-dimethylnicotinic acid]
< 500 | CC1(C)CN(c2ccc(Cl)c(F)c2)c2ccc(C(=O)N3CCN(c4cc(C(=O)O)ccn4)CC3(C)C)nc21 [Example 105, 2-(4-(1-(4-chloro-3-fluorophenyl)-3,3-dimethyl-2,3-dihydro-1H-pyrrolo[3,2-b]pyridine-5-carbonyl)-3,3-dimethylpiperazin-1-yl)isonicotinic acid]
500 to 10000 | CC1(C)CN(c2ccc(Cl)c(F)c2)c2ccc(C(=O)N3CCN(c4cnccc4C(=O)O)CC3(C)C)nc21 [Example 107, 3-(4-(1-(4-chloro-3-fluorophenyl)-3,3-dimethyl-2,3-dihydro-1H-pyrrolo[3,2-b]pyridine-5-carbonyl)-3,3-dimethylpiperazin-1-yl)isonicotinic acid]
> 10000 | CC1(C)CN(c2ccc(Cl)c(F)c2)c2ccc(C(=O)N3CCCC(Nc4ccc(C(=O)O)cn4)C3)nc21 (stereo not drawn) [Example 109, 6-((1-(1-(4-chloro-3-fluorophenyl)-3,3-dimethyl-2,3-dihydro-1H-pyrrolo[3,2-b]pyridine-5-carbonyl)piperidin-3-yl)amino)nicotinic acid]
500 to 10000 | CN(c1ccc(C(=O)O)cn1)C1CCCN(C(=O)c2ccc3c(n2)C(C)(C)CN3c2ccc(Cl)c(F)c2)C1 (stereo not drawn) [Example 111, 6-((1-(1-(4-chloro-3-fluorophenyl)-3,3-dimethyl-2,3-dihydro-1H-pyrrolo[3,2-b]pyridine-5-carbonyl)piperidin-3-yl)(methyl)amino)nicotinic acid hydrochloride]
< 500 | Cc1cc(N2CCN(C(=O)c3ccc4c(n3)C3(CCCC3)CN4c3ccc(F)c(F)c3)C(C)(C)C2)nc(C)c1C(=O)O [Example 113, 6-(4-(1′-(3,4-difluorophenyl)-1′,2′-dihydrospiro[cyclopentane-1,3′-pyrrolo[3,2-b]pyridine]-5′-carbonyl)-3,3-dimethylpiperazin-1-yl)-2,4-dimethylnicotinic acid]
< 500 | CC1(C)CN(c2ccc(Cl)c(F)c2)c2ccc(C(=O)N3CCN(c4cc(CC(=O)O)ccn4)CC3(C)C)nc21 [Example 115, 2-(2-(4-(1-(4-chloro-3-fluorophenyl)-3,3-dimethyl-2,3-dihydro-1H-pyrrolo[3,2-b]pyridine-5-carbonyl)-3,3-dimethylpiperazin-1-yl)pyridin-4-yl)acetic acid]
< 500 | CC1(C)CN(c2ccc(Cl)c(F)c2)c2ccc(C(=O)N3CCN(c4ccc(CC(=O)O)nc4)CC3(C)C)nc21 [Example 117, 2-(5-(4-(1-(4-chloro-3-fluorophenyl)-3,3-dimethyl-2,3-dihydro-1H-pyrrolo[3,2-b]pyridine-5-carbonyl)-3,3-dimethylpiperazin-1-yl)pyridin-2-yl)acetic acid]
< 500 | CC1(C)CN(c2ccc(CC(=O)O)cn2)CCN1C(=O)c1ccc2c(n1)C1(CCC1)CN2c1ccc(Cl)c(F)c1 [Example 119, 2-(6-(4-(1′-(4-chloro-3-fluorophenyl)-1′,2′-dihydrospiro[cyclobutane-1,3′-pyrrolo[3,2-b]pyridine]-5′-carbonyl)-3,3-dimethylpiperazin-1-yl)pyridin-3-yl)acetic acid]
> 10000 | CC1(C)CN(c2ccc(Cl)c(F)c2)c2ccc(C(=O)N3CCC4(C3)C(=O)Nc3ccccc34)nc21 (stereo not drawn) [Example 120, 1′-(1-(4-chloro-3-fluorophenyl)-3,3-dimethyl-2,3-dihydro-1H-pyrrolo[3,2-b]pyridine-5-carbonyl)spiro[indoline-3,3′-pyrrolidin]-2-one]
500 to 10000 | CC1(C)CN(c2ccc(Cl)c(F)c2)c2ccc(C(=O)N3CCC4(CC3)CNC(=O)O4)nc21 [Example 121, 8-(1-(4-chloro-3-fluorophenyl)-3,3-dimethyl-2,3-dihydro-1H-pyrrolo[3,2-b]pyridine-5-carbonyl)-1-oxa-3,8-diazaspiro[4.5]decan-2-one]
> 10000 | CC1(C)CN(c2ccc(Cl)c(F)c2)c2ccc(C(=O)N3CC4(C3)CN(c3ccc(C(=O)O)cn3)C4)nc21 [Example 123, 6-(6-(1-(4-chloro-3-fluorophenyl)-3,3-dimethyl-2,3-dihydro-1H-pyrrolo[3,2-b]pyridine-5-carbonyl)-2,6-diazaspiro[3.3]heptan-2-yl)nicotinic acid]
